Test results from patent US11179383B2 (Gilead Sciences, Inc., priority 2018, dated 2021).

These compounds were tested against T1, α4β7 integrin (Homo sapiens, UniProt P13612+P26010) (assay: α4β7 Integrin Cell Capture Assay). Conditions: capture of α4β7 integrin expressing RPMI8866 cells on recombinant MadCAM-1 extracellular domain-coated plate; DMEM+0.5% FBS+0.5 mM MnCl2; read-out: EC50 α4β7.
T1 construct: monitoring the capture of α4β7 integrin expressing cells on a recombinant MadCAM-1 extracellular domain-coated plate; endogenous in cells; host or cells: RPMI8866 cells
T1 sequence (P13612 34-1032): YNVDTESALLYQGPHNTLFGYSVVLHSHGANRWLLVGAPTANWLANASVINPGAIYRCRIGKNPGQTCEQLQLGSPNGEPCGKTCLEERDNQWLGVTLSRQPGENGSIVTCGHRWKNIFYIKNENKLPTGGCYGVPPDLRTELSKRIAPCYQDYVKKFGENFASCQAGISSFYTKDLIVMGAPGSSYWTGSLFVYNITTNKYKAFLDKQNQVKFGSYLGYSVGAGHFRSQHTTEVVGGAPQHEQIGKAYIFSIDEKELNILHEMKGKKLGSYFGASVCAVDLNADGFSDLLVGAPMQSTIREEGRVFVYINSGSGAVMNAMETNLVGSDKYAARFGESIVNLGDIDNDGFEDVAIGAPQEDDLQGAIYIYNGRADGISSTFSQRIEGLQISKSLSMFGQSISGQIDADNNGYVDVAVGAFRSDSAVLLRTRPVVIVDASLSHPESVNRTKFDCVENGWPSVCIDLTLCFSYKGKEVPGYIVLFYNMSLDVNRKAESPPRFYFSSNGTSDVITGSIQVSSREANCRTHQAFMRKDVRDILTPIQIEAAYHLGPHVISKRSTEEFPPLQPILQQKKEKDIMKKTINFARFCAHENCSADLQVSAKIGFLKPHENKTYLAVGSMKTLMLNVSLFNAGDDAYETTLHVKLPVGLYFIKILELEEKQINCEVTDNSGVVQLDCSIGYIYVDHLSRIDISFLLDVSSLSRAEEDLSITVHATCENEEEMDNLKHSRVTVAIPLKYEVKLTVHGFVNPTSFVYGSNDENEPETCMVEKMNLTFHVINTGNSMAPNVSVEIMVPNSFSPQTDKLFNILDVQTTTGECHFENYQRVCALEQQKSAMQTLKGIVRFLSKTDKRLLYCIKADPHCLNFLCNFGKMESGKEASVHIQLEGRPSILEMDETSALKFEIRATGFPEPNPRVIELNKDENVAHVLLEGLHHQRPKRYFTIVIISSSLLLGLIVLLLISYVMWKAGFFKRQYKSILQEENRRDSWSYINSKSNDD
T1 sequence (P26010 20-798): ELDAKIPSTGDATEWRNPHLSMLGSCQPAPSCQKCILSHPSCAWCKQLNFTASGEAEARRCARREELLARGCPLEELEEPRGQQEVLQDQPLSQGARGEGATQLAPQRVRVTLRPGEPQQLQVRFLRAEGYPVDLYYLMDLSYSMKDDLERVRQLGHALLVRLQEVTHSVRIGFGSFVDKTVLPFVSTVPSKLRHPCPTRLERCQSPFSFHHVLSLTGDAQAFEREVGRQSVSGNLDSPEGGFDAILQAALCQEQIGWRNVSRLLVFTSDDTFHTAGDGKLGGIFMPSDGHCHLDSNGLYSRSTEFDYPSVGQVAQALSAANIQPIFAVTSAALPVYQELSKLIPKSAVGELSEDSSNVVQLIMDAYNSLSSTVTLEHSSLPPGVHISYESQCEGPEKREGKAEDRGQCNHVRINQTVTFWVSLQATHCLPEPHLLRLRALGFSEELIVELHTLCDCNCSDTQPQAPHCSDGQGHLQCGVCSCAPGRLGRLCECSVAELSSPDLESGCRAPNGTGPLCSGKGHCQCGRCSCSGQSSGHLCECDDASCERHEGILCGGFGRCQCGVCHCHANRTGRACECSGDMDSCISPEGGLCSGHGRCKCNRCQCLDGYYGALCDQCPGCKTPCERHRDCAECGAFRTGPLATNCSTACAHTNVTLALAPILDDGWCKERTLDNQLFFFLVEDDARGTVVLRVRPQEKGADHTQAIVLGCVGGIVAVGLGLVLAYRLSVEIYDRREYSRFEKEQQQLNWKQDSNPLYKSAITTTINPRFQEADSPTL
Format: cell-based
Procedure, shortened: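 RPMI8866 cells in DMEM + 0.5% FBS + 0.5 mM MnCl2 preincubated with compound 1 h at 37 °C, then allowed to bind 30 min at 37 °C to plates coated with MAdCAM-1 extracellular domain (1.0 μg/mL). Cells fixed with glutaraldehyde, Hoechst-stained, imaged and bound cells counted; EC50 from cell count versus concentration.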

Compared with `CC[C@@H](Nc1cc(F)c(C(=O)N[C@@H](Cc2ccc(-c3nccc(C)c3C(F)(F)F)c3ccccc23)C(=O)O)c(F)c1)C(F)(F)F` [Example 123, (S)-2-(2,6-difluoro-4-(((R)-1,1,1-trifluorobutan-2-yl)amino)benzamido)-3-(4-(4-methyl-3-(trifluoromethyl)pyridin-2-yl)naphthalen-1-yl)propanoic acid], `CC[C@@H](Nc1cc(F)c(C(=O)N[C@@H](Cc2ccc(-c3c(C)n(C)c(=O)n(C)c3=O)c3ccccc23)C(=O)O)c(F)c1)C(F)(F)F` [Example 139, (S)-2-(2,6-difluoro-4-(((R)-1,1,1-trifluorobutan-2-yl)amino)benzamido)-3-(4-(1,3,6-trimethyl-2,4-dioxo-1,2,3,4-tetrahydropyrimidin-5-yl)naphthalen-1-yl)propanoic acid] is 25-fold lower in EC50: 10.2 nM for the first, 0.4 nM for the second.

Compared with `Cc1c(-c2ccc(C[C@H](NC(=O)c3c(Cl)cccc3Cl)C(=O)O)c3ncccc23)c(=O)n(C)c2ccc(C(F)(F)F)cc12` [Example 66, (S)-2-(2,6-dichlorobenzamido)-3-(1,4-dimethyl-2-oxo-6-(trifluoromethyl)-1,2-dihydro-[3,5′-biquinolin]-8′-yl)propanoic acid], `Cc1c(-c2ccc(C[C@H](NC(=O)c3c(Cl)cccc3Cl)C(=O)O)c3ncccc23)c(=O)n(C)c2ccc(F)cc12` (single isomer, unassigned) [Example 12] is 3.1-fold higher in EC50: 6.2 nM for the first, 19.5 nM for the second. The first is the more potent here.

Compared with `Cn1cc(F)cc(-c2ccc(C[C@H](NC(=O)c3c(Cl)cccc3Cl)C(=O)O)c3ncccc23)c1=O` [Example 19, (S)-2-(2,6-dichlorobenzamido)-3-(5-(5-fluoro-1-methyl-2-oxo-1,2-dihydropyridin-3-yl)quinolin-8-yl)propanoic acid], `COc1ncc(F)cc1-c1ccc(C[C@H](NC(=O)c2c(Cl)cccc2Cl)C(=O)O)c2ncccc12` [Example 28, (S)-2-(2,6-dichlorobenzamido)-3-(5-(5-fluoro-2-methoxypyridin-3-yl)quinolin-8-yl)propanoic acid] is 7.4-fold higher in EC50: 26.3 nM for the first, 194 nM for the second.

Compared with `CCOCc1cc(OC)c(-c2ccc(C[C@H](NC(=O)c3c(F)cc(NS(=O)(=O)c4ccc(-c5ccnc(F)c5)cc4)cc3F)C(=O)O)c3nc(C)oc23)c(OC)c1` [Example 151, (S)-2-(2,6-difluoro-4-((4-(2-fluoropyridin-4-yl)phenyl)sulfonamido)benzamido)-3-(7-(4-(ethoxymethyl)-2,6-dimethoxyphenyl)-2-methylbenzo[d]oxazol-4-yl) propanoic acid], `CCOCc1cc(OC)c(-c2ccc(CC(NC(=O)c3c(F)cc(NS(=O)(=O)c4ccc(-c5ccnc(F)c5)cc4)cc3F)C(=O)O)c3cnn(C)c23)c(OC)c1` (centres unmarked) [Example 146, 2-(2,6-difluoro-4-((4-(2-fluoropyridin-4-yl)phenyl)sulfonamido)benzamido)-3-(7-(4-(ethoxymethyl)-2,6-dimethoxyphenyl)-1-methyl-1H-indazol-4-yl)propanoic acid] is 9.7-fold lower in EC50: 5.8 nM for the first, 0.6 nM for the second. The second is the more potent here.

First: Cc1c(-c2ccc(C[C@H](NC(=O)c3c(Cl)cccc3Cl)C(=O)O)c3ncccc23)c(=O)n(C)c2ccc(C3CC3)cc12 [Example 71, (S)-3-(6-cyclopropyl-1,4-dimethyl-2-oxo-1,2-dihydro-[3,5′-biquinolin]-8′-yl)-2-(2,6-dichlorobenzamido)propanoic acid]
Second: Cc1c(-c2ccc(C[C@H](NC(=O)c3c(Cl)cccc3Cl)C(=O)O)c3ncccc23)c(=O)n(C)c2ccc(Cl)cc12 [Example 67, (S)-3-(6-chloro-1,4-dimethyl-2-oxo-1,2-dihydro-[3,5′-biquinolin]-8′-yl)-2-(2,6-dichlorobenzamido)propanoic acid]
The EC50 of the first is 6.2-fold higher: 15.4 nM for the first, 2.5 nM for the second.

First: Cc1c(-c2ccc(C[C@H](NC(=O)c3c(F)cccc3F)C(=O)O)c3ccccc23)c(=O)n(C)c2ccccc12 (single isomer, unassigned) [Example 120]
Second: Cc1c(-c2ccc(C[C@H](NC(=O)c3c(Cl)cccc3Cl)C(=O)O)c3ncccc23)c(=O)n(C)c2cc(Cl)ccc12 (single isomer, unassigned) [Example 77]
The EC50 of the first is 40-fold lower: 1.5 nM for the first, 60.4 nM for the second.

Going from `O=C(N[C@@H](Cc1ccc(-c2c(Cl)cc(F)cc2Cl)c2c1C=CCO2)C(=O)O)c1c(Cl)cccc1Cl` [Example 169, (S)-3-(8-(2,6-dichloro-4-fluorophenyl)-2H-chromen-5-yl)-2-(2,6-dichlorobenzamido)propanoic acid] to `COc1cc(F)cc(C(F)(F)F)c1-c1ccc(C[C@H](NC(=O)c2c(Cl)cccc2Cl)C(=O)O)c2ncccc12` (single isomer, unassigned) [Example 49], the EC50 falls from 142 nM to 46.2 nM (3.1-fold). The second is the more potent here.

First: COc1ccn(C)c(=O)c1-c1ccc(CC(NC(=O)c2c(Cl)cccc2Cl)C(=O)O)c2ncccc12 (centres unmarked) [Example 32, 2-(2,6-Dichlorobenzamido)-3-(5-(4-methoxy-1-methyl-2-oxo-1,2-dihydropyridin-3-yl)quinolin-8-yl)propanoic acid]
Second: Cc1ccn(C)c(=O)c1-c1ccc(CC(NC(=O)c2c(Cl)cccc2Cl)C(=O)O)c2ncccc12 (centres unmarked) [Example 30, 2-(2,6-Dichlorobenzamido)-3-(5-(1,4-dimethyl-2-oxo-1,2-dihydropyridin-3-yl)quinolin-8-yl)propanoic acid]
The EC50 of the first is 7.7-fold lower: 6 nM for the first, 46.4 nM for the second.

`Cc1cc(C(F)(F)F)c(-c2ccc(C[C@H](NC(=O)c3c(Cl)cccc3Cl)C(=O)O)c3ncccc23)c(=O)n1C` (single isomer, unassigned) [Example 60] and `Cn1c2c(c(C(F)(F)F)c(-c3ccc(C[C@H](NC(=O)c4c(Cl)cccc4Cl)C(=O)O)c4ncccc34)c1=O)CCC2` [Example 68, (S)-2-(2,6-dichlorobenzamido)-3-(5-(1-methyl-2-oxo-4-(trifluoromethyl)-2,5,6,7-tetrahydro-1H-cyclopenta[b]pyridin-3-yl)quinolin-8-yl)propanoic acid] are the same in EC50: 2.7 nM for the first, 2.7 nM for the second.

Compared with `O=C(N[C@@H](Cc1ccc(-c2cccc[n+]2[O-])c2cccnc12)C(=O)O)c1c(Cl)cccc1Cl` [Example 38], `Cn1ccnc(-c2ccc(C[C@H](NC(=O)c3c(Cl)cccc3Cl)C(=O)O)c3ncccc23)c1=O` [Example 27, (S)-2-(2,6-dichlorobenzamido)-3-(5-(4-methyl-3-oxo-3,4-dihydropyrazin-2-yl)quinolin-8-yl)propanoic acid] is 3.7-fold lower in EC50: 212 nM for the first, 57.7 nM for the second.

`O=C(N[C@@H](Cc1ccc(-c2cccc3c2OCCC3)c2cccnc12)C(=O)O)c1c(Cl)cccc1Cl` [Example 24, (S)-3-(5-(chroman-8-yl)quinolin-8-yl)-2-(2,6-dichlorobenzamido)propanoic acid] and `[2H]C([2H])([2H])Oc1cc(F)c(F)cc1-c1ccc(C[C@H](NC(=O)c2c(Cl)cccc2Cl)C(=O)O)c2ncccc12` [Example 55, (S)-2-(2,6-dichlorobenzamido)-3-(5-(4,5-difluoro-2-(methoxy-d3)phenyl)quinolin-8-yl)propanoic acid] are within 1.5-fold of each other in EC50: 49.5 nM for the first, 63.1 nM for the second.

`Cn1c(=O)c(-c2ccc(C[C@H](NC(=O)c3c(Cl)cccc3Cl)C(=O)O)c3ncccc23)c(C(F)(F)F)c2cc(Br)ccc21` (single isomer, unassigned) [Example 65] showed an EC50 of 26.8 nM.
